Measurements taken from US8143263B2, “Therapeutic agents” (Astrazeneca AB, priority 2008, dated 2012).

Molecular target: T1, recombinant human pancreatic GLK (Homo sapiens, UniProt P35557)
T1 sequence (P35557 1-465): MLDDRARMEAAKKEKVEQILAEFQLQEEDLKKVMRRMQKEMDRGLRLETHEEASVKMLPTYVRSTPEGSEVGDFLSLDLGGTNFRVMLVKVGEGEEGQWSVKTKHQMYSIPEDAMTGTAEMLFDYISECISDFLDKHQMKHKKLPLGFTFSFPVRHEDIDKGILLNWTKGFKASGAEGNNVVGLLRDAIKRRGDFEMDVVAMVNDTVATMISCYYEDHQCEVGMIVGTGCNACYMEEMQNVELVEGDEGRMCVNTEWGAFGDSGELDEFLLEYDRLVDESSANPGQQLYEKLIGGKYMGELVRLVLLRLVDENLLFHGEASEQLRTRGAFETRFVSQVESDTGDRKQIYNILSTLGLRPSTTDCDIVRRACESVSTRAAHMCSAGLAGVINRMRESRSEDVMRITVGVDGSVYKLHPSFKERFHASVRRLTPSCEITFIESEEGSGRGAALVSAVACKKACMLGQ
Assay: biochemical

Structure (SMILES)	EC50
CCOC[C@H](Oc1ncnc2c1cnn2-c1ccccc1Cl)C(=O)Nc1cnc(C)cn1 [Example 105, (2S)-2-[1-(2-chlorophenyl)pyrazolo[4,5-e]pyrimidin-4-yl]oxy-3-ethoxy-N-(5-methylpyrazin-2-yl)propanamide]	510 nM
O=C(Nc1ccccn1)[C@H](CN1CC(O)C1)Oc1ncnc2c1cnn2-c1ncccc1Cl [Example 241, (2S)-2-[1-(3-chloro-2-pyridyl)pyrazolo[3,4-d]pyrimidin-4-yl]oxy-3-(3-hydroxyazetidin-1-yl)-N-(2-pyridyl)propanamide]	350 nM
COCC[C@H](Oc1ncnc2c1cnn2-c1cccc(C)c1)C(=O)Nc1ccc(C)cn1 [Example 33, (S)-4-methoxy-2-{[1-(3-methylphenyl)-1H-pyrazolo[3,4-d]pyrimidin-4-yl]oxy}-N-(5-methylpyridin-2-yl)butanamide]	> 1700 nM
Cc1ccc(NC(=O)[C@@H](COC(C)C)Oc2ncnc3c2cnn3-c2ccccc2Cl)nc1 [Example 99, (2R)-2-(1-(2-chlorophenyl)-1H-pyrazolo[3,4-d]pyrimidin-4-yloxy)-3-isopropoxy-N-(5-methylpyridin-2-yl)propanamide]	9300 nM
COC[C@H](C)OC[C@H](Oc1ncnc2c1cnn2-c1ccccc1Cl)C(=O)Nc1ccc(C)cn1 [Example 152, (2S)-2-(1-(2-chlorophenyl)-1H-pyrazolo[3,4-d]pyrimidin-4-yloxy)-3-((S)-1-methoxypropan-2-yloxy)-N-(5-methylpyridin-2-yl)propanamide]	490 nM
COc1ccnc(NC(=O)[C@H](COC(C)C)Oc2ncnc3c2cnn3-c2ncccc2Cl)c1 [(2S)-2-[1-(3-chloro-2-pyridyl)pyrazolo[4,5-e]pyrimidin-4-yl]oxy-3-isopropoxy-N-(4-methoxy-2-pyridyl)propanamide]	> 100000 nM
Cc1ccc(NC(=O)[C@H](CCNS(C)(=O)=O)Oc2ncnc3c2cnn3-c2ccccc2Cl)nc1 [Example 164, (2S)-2-(1-(2-chlorophenyl)-1H-pyrazolo[3,4-d]pyrimidin-4-yloxy)-N-(5-methylpyridin-2-yl)-4-(methylsulfonamido)butanamide]	930 nM
COCCOCCC(Sc1ncnc2c1cnn2C(C)C)C(=O)Nc1nc(C)cs1 (stereo not shown) [Example 57, 2-[(1-Isopropyl-1H-pyrazolo[3,4-d]pyrimidin-4-yl)thio]-4-(2-methoxyethoxy)-N-(4-methyl-1,3-thiazol-2-yl)butanamide]	30000 nM
Cc1c(F)cccc1-n1ncc2c(O[C@@H](COCCO)C(=O)Nc3ccc(C#N)cn3)ncnc21 [Example 168, (2S)—N-(5-cyanopyridin-2-yl)-2-[1-(3-fluoro-2-methylphenyl)pyrazolo[4,5-e]pyrimidin-4-yl]oxy-3-(2-hydroxyethoxy)propanamide]	3900 nM
O=C(Nc1ccc(Cl)cn1)[C@H](CCO)Oc1ncnc2c1cnn2-c1ncccc1Cl [Example 143b, (2S)-N-(5-chloro-2-pyridyl)-2-[1-(3-chloro-2-pyridyl)pyrazolo[4,5-e]pyrimidin-4-yl]oxy-4-hydroxy-butanamide]	260 nM
COC[C@H](Oc1ncnc2c1cnn2-c1ccccc1Cl)C(=O)Nc1ccc(C)cn1 [Example 3, (S)-2-{[1-(2-chlorophenyl)-1H-pyrazolo[3,4-d]pyrimidin-4-yl]oxy}-3-methoxy-N-(5-methylpyridin-2-yl)propanamide]	170 nM
CCOC[C@H](Oc1ncnc2c1cnn2-c1cc(C)ccc1C)C(=O)Nc1ccc(C#N)cn1 [Example 186, (2S)—N-(5-cyanopyridin-2-yl)-2-(1-(2,5-dimethylphenyl)-1H-pyrazolo[3,4-d]pyrimidin-4-yloxy)-3-ethoxypropanamide]	1800 nM
Cc1cnc(NC(=O)[C@H](CN2CC(O)C2)Oc2ncnc3c2cnn3-c2ccccc2Cl)cn1 [Example 219, (2S)-2-[1-(2-chlorophenyl)pyrazolo[4,5-e]pyrimidin-4-yl]oxy-3-(3-hydroxyazetidin-1-yl)-N-(5-methylpyrazin-2-yl)propanamide]	280 nM
Cc1nc(NC(=O)[C@H](COC(C)C)Oc2ncnc3c2cnn3-c2ncccc2Cl)nn1C [(2S)-2-[1-(3-chloro-2-pyridyl)pyrazolo[4,5-e]pyrimidin-4-yl]oxy-N-(1,5-dimethyl-1,2,4-triazol-3-yl)-3-isopropoxy-propanamide]	> 100000 nM
Cc1cnc(NC(=O)[C@H](COC2CCC2)Oc2ncnc3c2cnn3-c2ncccc2Cl)cn1 [Example 157, (2S)-2-(1-(3-chloropyridin-2-yl)-1H-pyrazolo[3,4-d]pyrimidin-4-yloxy)-3-cyclobutoxy-N-(5-methylpyrazin-2-yl)propanamide]	140 nM
C[C@H](CO)OC[C@H](Oc1ncnc2c1cnn2-c1c(C#N)cccc1C#N)C(=O)Nc1ccc(Cl)cn1 [Example 236, (2S)—N-(5-chloro-2-pyridyl)-2-[1-(2,6-dicyanophenyl)pyrazolo[3,4-d]pyrimidin-4-yl]oxy-3-[(1R)-2-hydroxy-1-methyl-ethoxy]propanamide]	740 nM

Structure (SMILES)	EC50
O=C(Nc1ccc(F)cn1)[C@H](CN1CC(O)C1)Oc1ncnc2c1cnn2-c1c(F)cccc1Cl [Example 229, (2S)-2-[1-(2-chloro-6-fluoro-phenyl)pyrazolo[3,4-d]pyrimidin-4-yl]oxy-N-(5-fluoro-2-pyridyl)-3-(3-hydroxyazetidin-1-yl)propanamide]	110 nM
C[C@H](CO)OC[C@H](Oc1ncnc2c1cnn2-c1ccccc1Cl)C(=O)Nc1ccc(C#N)cn1 [Example 252, (2S)-2-[1-(2-chlorophenyl)pyrazolo[3,4-d]pyrimidin-4-yl]oxy-N-(5-cyano-2-pyridyl)-3-[(1R)-2-hydroxy-1-methyl-ethoxy]propanamide]	450 nM
Cc1ccc(NC(=O)[C@@H](Oc2ncnc3c2cnn3-c2ncccc2Cl)C(C)C)nc1 [Example 86, (2S)-2-(1-(3-chloropyridin-2-yl)-1H-pyrazolo[3,4-d]pyrimidin-4-yloxy)-3-methyl-N-(5-methylpyridin-2-yl)butanamide]	1500 nM
Cc1ccccc1-n1nnc2c(O[C@@H](COCCO)C(=O)Nc3ccc(Cl)cn3)ncnc21 [Example 198, (2S)—N-(5-chloropyridin-2-yl)-3-(2-hydroxyethoxy)-2-(3-o-tolyl-3H-[1,2,3]triazolo[4,5-d]pyrimidin-7-yloxy)propanamide]	2200 nM
C[C@H](CO)OC[C@H](Oc1ncnc2c1cnn2-c1ncccc1Cl)C(=O)Nc1ccc(F)cn1 [Example 191, (2S)-2-(1-(3-chloropyridin-2-yl)-1H-pyrazolo[3,4-d]pyrimidin-4-yloxy)-N-(5-fluoropyridin-2-yl)-3-((R)-1-hydroxypropan-2-yloxy)propanamide]	840 nM
CCOC[C@H](Oc1ncnc2c1cnn2-c1ncccc1Cl)C(=O)Nc1ccc(Cl)cn1 [Example 127g, (2S)—N-(5-chloro-2-pyridyl)-2-[1-(3-chloro-2-pyridyl)pyrazolo[4,5-e]pyrimidin-4-yl]oxy-3-ethoxy-propanamide]	300 nM
N#Cc1ccc(NC(=O)[C@H](CCO)Oc2ncnc3c2cnn3-c2ncccc2Cl)nc1 [Example 143e, (2S)-2-[1-(3-chloro-2-pyridyl)pyrazolo[4,5-e]pyrimidin-4-yl]oxy-N-(5-cyano-2-pyridyl)-4-hydroxy-butanamide]	530 nM
COCCC(Oc1ncnc2c1cnn2-c1ccccc1OC)C(=O)Nc1ccc(C)cn1 (stereo not shown) [Example 22, 4-Methoxy-2-{[1-(2-methoxyphenyl)-1H-pyrazolo[3,4-d]pyrimidin-4-yl]oxy}-N-(5-methylpyridin-2-yl)butanamide]	190 nM
O=C(Nc1ccccn1)[C@H](CN1CC(O)C1)Oc1ncnc2c1cnn2-c1ccccc1Cl [Example 225, (2S)-2-[1-(2-chlorophenyl)pyrazolo[3,4-d]pyrimidin-4-yl]oxy-3-(3-hydroxyazetidin-1-yl)-N-(2-pyridyl)propanamide]	220 nM
CC(C)OCC(Oc1ncnc2c1cnn2-c1ccccc1Cl)C(=O)Nc1ncccn1 (stereo not shown) [2-[1-(2-chlorophenyl)pyrazolo[4,5-e]pyrimidin-4-yl]oxy-3-isopropoxy-N-pyrimidin-2-yl-propanamide]	> 100000 nM
CNC(=O)CCC(Oc1ncnc2c1cnn2-c1ccccc1Cl)C(=O)Nc1ccc(C)cn1 (stereo not shown) [Example 51, 2-{[1-(2-chlorophenyl)-1H-pyrazolo[3,4-d]pyrimidin-4-yl]oxy}-N5-methyl-N1-(5-methylpyridin-2-yl)pentanediamide]	4400 nM
CC(C)OC[C@H](Oc1ncnc2c1cnn2-c1ncccc1Cl)C(=O)Nc1ccc(F)cn1 [Example 127l, (2S)-2-[1-(3-chloro-2-pyridyl)pyrazolo[4,5-e]pyrimidin-4-yl]oxy-N-(5-fluoro-2-pyridyl)-3-isopropoxy-propanamide]	500 nM
COCC[C@H](Oc1ncnc2c1cnn2-c1ccccc1OC)C(=O)Nc1ccc(C)cn1 [Example 24, (S)-4-methoxy-2-{[1-(2-methoxyphenyl)-1H-pyrazolo[3,4-d]pyrimidin-4-yl]oxy}-N-(5-methylpyridin-2-yl)butanamide]	120 nM
Cc1c(C#N)cccc1-n1ncc2c(O[C@@H](COCCO)C(=O)Nc3ccc(Cl)cn3)ncnc21 [Example 209, (2S)—N-(5-chloropyridin-2-yl)-2-(1-(3-cyano-2-methylphenyl)-1H-pyrazolo[3,4-d]pyrimidin-4-yloxy)-3-(2-hydroxyethoxy)propanamide]	1500 nM
CCOC[C@H](Oc1ncnc2c1cnn2-c1ncccc1Cl)C(=O)Nc1ccc(C(=O)N(C)C)cn1 [Example 147, 6-[[(2S)-2-[1-(3-chloro-2-pyridyl)pyrazolo[4,5-e]pyrimidin-4-yl]oxy-3-ethoxy-propanoyl]amino]-N,N-dimethyl-pyridine-3-carboxamide]	7800 nM
